Experimental data as given in patent US8252832B2, “Kinesin inhibitors as cancer therapeutics” (Novartis AG, priority 2007, dated 2012).
Values joined by “and” are separate entries in the source; they are usually repeats but may differ in a detail not shown here. Equal entries are not always repeated.

How the values were obtained:
Assay type in all cases: in vivo, mouse
[1] = HCT116 tumor xenograft model, host response (body weight, survival, neutrophils); conditions: q4d × 3; for Neutrophils/ul 72 h post-dose +/− S.D.: 72 h after last dose
Experimental: (§1) The cell line HCT-116 has been widely used in the evaluation of mitotic inhibitors such as microtubule disruptors, mitotic kinase inhibitors and KSP inhibitors. A multi-dose efficacy study on a four times per day for three days (q4d×3) dosing schedule was performed. Experiments were performed using outbred athymic nu/nu mice approximately 6-8 weeks old (Charles River Laboratories, Hollister, Calif.). […] Mice were housed 4-5 animals per cage in clear polycarbonate micro-isolator cages with a 12-hour light, 12-hour dark cycle at temperatures between 70-80 degrees Fahrenheit and 30-70% relative humidity. Food (Purina rodent chow pellets) and water were provided ad libitum. Mice were handled in accordance with Novartis ACUC regulations and guidelines and the ILAR Guide for the Care and Use of Laboratory Animals. Experiments were performed in an AAALAC accredited facility under an ACUC approved protocol.
(§2) Compound IIa (free base) and SB-715992 (ispinesib, a KSP inhibitor by Cytokinetics that is in clinical trials; as its free base) were formulated in 20% Captisol® for all the above doses for a dose volume of 8 mL/kg. Doses were adjusted to each animal's body weight.
(§3) Female nu/nu mice (Charles River, Hollister, Calif.) were injected subcutaneously in the right flank with 5 million HCT-116 tumor cells suspended in Hank's Balanced Salt Solution (HBSS) in a total volume of 0.1 mL/mouse. For the efficacy studies, mice were randomized 10 days post-implant. […] Tumor volume was calculated as (L×W2)/2. […] Percent treatment/control (T/C) values were calculated using the following formula: % T/C=100×ΔT/ΔC
Since a dose as low as 1.25 mg/kg on a q4d×3 schedule induced regression of HCT116 xenografts, the efficacy study was repeated with a range of doses from 2 to 0.125 mg/kg to observe a dose response and determine how low a dose can be given to induce tumor regression. […] Only the 7.5 mg/kg dose of SB-715992 induced tumors to regress. Additionally, 72 hrs after the last dose, blood was collected to compare the circulating neutrophil levels among groups. Neutrophils were reduced in a dose responsive manner, similar to the tumor efficacy effect.

[2] = tested on: HCT116 tumor xenograft; assay: HCT116 tumor xenograft model, tumor response
Experimental: as §1, with “A multi-dose efficacy study on a four times per day for three days (q4d×3) dosing schedule was performed.” left out
as §2
Human HCT116 colon carcinoma cells were obtained from the National Cancer Institute's DCTD Tumor Repository (catalog #NCI-502568, Rockville, Md.) and tested to be free of Mycoplasma sp. and murine viruses in the IMPACT1 PCR assay panel (RADIL, University of Missouri, Columbia, Mo.). HCT116 cells were grown in RPMI 1640 with 2 mM L-glutamine (Mediatech Inc., catalog #15-040-CV) supplemented with 10% fetal bovine serum (JRH Biosciences, catalog #12003-1000M). These cells were grown as adherent cultures, maintained at 37° C. in a humidified atmosphere containing 5% carbon dioxide. Cells were cultured for fewer than 10 passages prior to use. Cells were harvested at 95% confluency, and centrifuged at ˜800×g for 5 minutes at 4° C. and then resuspended in a cold HBSS (Mediatech Inc., catalog #21-021-CV) at a concentration of 50 million cells/mL for implantation subcutaneously (injection volume of 0.1 mL).
as §3
All data were expressed as mean and SEM. Between-groups comparisons for final tumor measurements were performed using the one-way ANOVA pair-wise analysis. Significance was determined using Kruskal-Wallis one-way ANOVA on Ranks and Dunn's method for multiple pair-wise comparisons. Statistical analysis was carried out using SigmaStat (Systat Software Inc., San Jose, Calif.).

[3] = tested on: human multiple myeloma KMS-11-luc tumor xenografts; assay: Subcutaneous KMS-11-luc tumor xenograft model, tumor response
Experimental: Experiments were performed using immunodeficient SCID-Beige female mice approximately 7-8 weeks old (Charles River Laboratories, Wilmington, Mass.). […] Routine animal care and assurance of welfare were as described above.
Human KMS-11-luc multiple myeloma cells were obtained from the laboratory of Suzanne Trudel at the University of Toronto (Ontario, Canada) and tested to be free of Mycoplasma sp. and murine viruses in the IMPACT1 PCR assay panel (RADIL, University of Missouri, Columbia, Mo.). Prior to our receiving this cell line, it had been stably engineered to express luciferase by retroviral transfection of the pGC-gfp/luc vector. KMS-11-luc cells were grown in Iscove's medium supplemented with 2 mmol/L L-glutamine (Mediatech, Inc., Hemdon, Va.) and 10% fetal bovine serum (JRH Biosciences, catalog #12003-1000M). These cells were grown as suspension cultures, maintained at 37° C. in a humidified atmosphere containing 5% carbon dioxide. Cells were cultured for fewer than 10 passages prior to use. Cells were harvested at approximately 2 million cells/mL, and centrifuged at ˜800×g for 5 minutes at 4° C. and then resuspended in a 1:1 mixture of cold Hank's balanced salt solution (HBSS) and Matrigel™ (Mediatech Inc., catalog #21-021-CV; BD Biosciences, catalog #354234, respectively) at a concentration of 50 million cells/mL for implantation subcutaneously (injection volume of 0.2 mL). Alternatively, for the disseminated disease model, cells were prepared only in cold HBSS at a concentration of 100 million cells/mL for intravenous (i.v.) implantation via the tail vein (injection volume of 0.1 mL).
Compound IIa and SB-715992 (free base) were formulated in 20% Captisol for a dose volume of 8 mL/kg. Doses were adjusted to each animal's body weight.
For the efficacy evaluation in the subcutaneous tumor model, 10 million cells combined in a 1:1 mixture of HBSS and Matrigel™ were injected subcutaneously in the right flank in a total volume of […]. […] Tumor volume was calculated as (L×W2)/2. […] Data analysis was as described above.

Structure (SMILES): CC(=O)O[C@H]1C(=O)[C@@]2(C)[C@H]([C@H](OC(=O)c3ccccc3)[C@]3(O)C[C@H](OC(=O)[C@H](O)[C@@H](NC(=O)c4ccccc4)c4ccccc4)C(C)=C1C3(C)C)[C@]1(OC(C)=O)CO[C@@H]1C[C@@H]2O [Paclitaxel, reference compound]
- Survival (alive/total) ([1]; 30 mg/kg, i.p.): 9/9
- Δ Tumor volume, Day 17 ([2]; 30 mg/kg, i.p., q4d × 3): −80 ± 3 mm^3
- Max. % Regression (Day) ([2]; 30 mg/kg, i.p., q4d × 3, D17): 31%
- T/C, Day 31 (%) ([3]; 30 mg/kg, Q4d × 3, i.p.): 30%
- Δ Tumor volume, Day 31 ([3]; 30 mg/kg, Q4d × 3, i.p.): 640 ± 190 mm^3
- Max. % Regression (Day) ([3]; 30 mg/kg, Q4d × 3, i.p., D3): 5 (D3) %

Structure (SMILES): Cc1ccc(C(=O)N(CCCN)[C@@H](c2nc3cc(Cl)ccc3c(=O)n2Cc2ccccc2)C(C)C)cc1 [SB-715992, Ispinesib, reference compound]
- Survival (alive/total) ([1]; 1.75 mg/kg, i.v.): 9/9
- Neutrophils/ul 72 h post-dose +/− S.D. ([1]; 1.75 mg/kg, i.v.): 1026 ± 229 µL⁻¹
- Max. Δ body weight (Day) ([1]; 1.75 mg/kg, i.v., D3): -0.6 ± 0.58 g
- Max. Δ body weight (Day) (%) ([1]; 1.75 mg/kg, i.v., D3): −2.3 ± 0.51%
- Survival (alive/total) ([1]; 3.5 mg/kg, i.v.): 9/9
- Neutrophils/ul 72 h post-dose +/− S.D. ([1]; 3.5 mg/kg, i.v.): 731 ± 391 µL⁻¹
- Max. Δ body weight (Day) ([1]; 3.5 mg/kg, i.v., D3): -0.5 ± 0.37 g
- Max. Δ body weight (Day) (%) ([1]; 3.5 mg/kg, i.v., D3): −2.0 ± 0.44%
- Max. Δ body weight (Day) ([1]; 3.5 mg/kg, i.v., D4): -0.7 ± 0.05 g
- Max. Δ body weight (Day) (%) ([1]; 3.5 mg/kg, i.v., D4): −2.7 ± 0.17%
- Survival (alive/total) ([1]; 7.5 mg/kg, i.v.): 9/9
- Neutrophils/ul 72 h post-dose +/− S.D. ([1]; 7.5 mg/kg, i.v.): 476 ± 112 µL⁻¹
- Max. Δ body weight (Day) ([1]; 7.5 mg/kg, i.v., D4): -0.3 ± 0.05 g
- Max. Δ body weight (Day) (%) ([1]; 7.5 mg/kg, i.v., D4): −1.3 ± 0.25%
- Max. Δ body weight (Day) ([1]; 7.5 mg/kg, i.v., D10): -0.7 ± 1.1 g
- Max. Δ body weight (Day) (%) ([1]; 7.5 mg/kg, i.v., D10): −3.0 ± 2.49%
- Survival (alive/total) ([1]; 15 mg/kg, i.v.): 9/9
- Max. Δ body weight (Day) ([1]; 15 mg/kg, i.v., D7): -2.5 ± 0.2 g
- Max. Δ body weight (Day) (%) ([1]; 15 mg/kg, i.v., D7): −10.6 ± 0.75%
- T/C, Day 24 (%) ([2]; 1.75 mg/kg, i.v., q4d × 3): 36%
- Δ Tumor volume, Day 24 ([2]; 1.75 mg/kg, i.v., q4d × 3): 395 ± 84 mm^3
- T/C, Day 17 (%) ([2]; 3.5 mg/kg, i.v., q4d × 3): 5%
- T/C, Day 24 (%) ([2]; 3.5 mg/kg, i.v., q4d × 3): 15%
- Δ Tumor volume, Day 17 ([2]; 3.5 mg/kg, i.v., q4d × 3): 39 ± 4 mm^3
- Δ Tumor volume, Day 24 ([2]; 3.5 mg/kg, i.v., q4d × 3): 165 ± 60 mm^3
- Max. % Regression (Day) ([2]; 3.5 mg/kg, i.v., q4d × 3, D7): 13%
- Max. % Regression (Day) ([2]; 3.5 mg/kg, i.v., q4d × 3, D11): 10%
- Δ Tumor volume, Day 17 ([2]; 7.5 mg/kg, i.v., q4d × 3): −177 ± 55 mm^3
- Δ Tumor volume, Day 24 ([2]; 7.5 mg/kg, i.v., q4d × 3): −145 ± 25 mm^3
- Max. % Regression (Day) ([2]; 7.5 mg/kg, i.v., q4d × 3, D17): 65%
- Max. % Regression (Day) ([2]; 7.5 mg/kg, i.v., q4d × 3, D21): 65%
- Δ Tumor volume, Day 17 ([2]; 15 mg/kg, i.v., q4d × 3 (only first two doses given)): −205 ± 24 mm^3
- Max. % Regression (Day) ([2]; 15 mg/kg, i.v., q4d × 3 (only first two doses given), D20): 73%
- Δ Tumor volume, Day 31 ([3]; 7.5 mg/kg, Q4d × 3, i.v.): −46 ± 19 mm^3
- Max. % Regression (Day) ([3]; 7.5 mg/kg, Q4d × 3, i.v., D14): 49% and 49, (D14) %
